In publication PMC7284133, “Identification and analysis of novel small molecule inhibitors of RNase E: Implications for antibacterial targeting and regulation of RNase E” (Biochemistry and Biophysics Reports, 2020):

Columns and labels:
RNase E [1] = biological target: T1, RNase E (Escherichia coli, UniProt P21513); test: FRET-based real-time RNA cleavage assay; also discontinuous PAGE assay; type: biochemical
T1 construct: gene rne; N-terminal domain (aa 1–529), N-terminally His10-tagged

RNase E [2] = biological target: T2, RNase E (Acinetobacter baumannii, UniProt A0ABX6CBI2); test: biochemical
T2 construct: gene rne; N-terminal domain (aa 1–544), N-terminally His10-tagged

T1 sequence (P21513 1-529): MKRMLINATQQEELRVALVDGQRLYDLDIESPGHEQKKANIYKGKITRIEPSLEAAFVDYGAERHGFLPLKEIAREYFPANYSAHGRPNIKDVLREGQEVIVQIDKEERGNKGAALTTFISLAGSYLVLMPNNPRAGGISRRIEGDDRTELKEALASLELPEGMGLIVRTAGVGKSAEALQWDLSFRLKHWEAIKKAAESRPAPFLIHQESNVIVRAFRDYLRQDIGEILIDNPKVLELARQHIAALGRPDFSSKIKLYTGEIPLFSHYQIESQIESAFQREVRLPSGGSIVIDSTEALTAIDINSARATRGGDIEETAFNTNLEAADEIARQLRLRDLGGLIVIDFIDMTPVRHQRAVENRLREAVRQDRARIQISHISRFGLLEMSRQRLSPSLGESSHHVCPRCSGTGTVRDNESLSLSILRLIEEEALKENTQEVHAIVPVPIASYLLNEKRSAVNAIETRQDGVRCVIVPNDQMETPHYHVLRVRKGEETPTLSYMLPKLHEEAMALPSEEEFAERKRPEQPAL

Structure (SMILES): CC1=NNC(=O)C1CCC(=O)O (stereo not shown) [5′S1]
- IC50 (RNase E [1]): 2.5 mM
- inhibition at 2000 µM (RNase E [2]): ~60%

Structure (SMILES): N[C@@H]1[C@@H](O)[C@H](O)[C@@H](COP(=O)(O)O)O[C@@H]1O [AS4, glucosamine-6-phosphate]
- IC50 (RNase E [1]): 2.1 mM

Structure (SMILES): CC(C)c1c(O)nc(SCCC(=O)O)[nH]c1=O [AS2]
- IC50 (RNase E [1]): 1.9 mM
